Data: ChEMBL document CHEMBL3885881, “DrugMatrix”

Organism: Rattus norvegicus
Assay: DrugMatrix - Regimen: Daily Repeat
Type: toxicity, organism-based, Sprague-Dawley
Set-up: regimen Daily Repeat, gender Male, age 6-8 weeks
Settings: in vivo, po, route oral GAVAGE, […]; for ABSOLUTE BASOPHIL / ABSOLUTE EOSINOPHIL / ABSOLUTE LYMPHOCYTE / ABSOLUTE MONOCYTE / ABSOLUTE SEGMENTED NEUTROPHIL / BASOPHIL / EOSINOPHIL / ERYTHROCYTE COUNT / HEMATOCRIT / HEMOGLOBIN / LEUKOCYTE COUNT / LYMPHOCYTE / MEAN CORPUSCULAR HEMOGLOBIN / MEAN CORPUSCULAR HEMOGLOBIN CONCENTRATION / MEAN CORPUSCULAR VOLUME / MONOCYTE / NEUTROPHIL / NUCLEATED RED BLOOD CELLS / PLATELET COUNT: tissue Blood; for ALANINE AMINOTRANSFERASE / ALBUMIN / ALKALINE PHOSPHATASE / ASPARTATE AMINOTRANSFERASE / BLOOD UREA NITROGEN / CARBON DIOXIDE / CHLORIDE / CHOLESTEROL / CREATINE PHOSPHOKINASE / CREATININE / GLUCOSE / LACTATE DEHYDROGENASE / LIPASE / PHOSPHORUS / POTASSIUM / SODIUM / TOTAL BILIRUBIN / TOTAL PROTEIN / URIC ACID: tissue Plasma
[1] = 80 mg/kg, 120 h, dose level Low, time 5 day
[2] = 338 mg/kg, 72 h, dose level High, time 3 day
[3] = 338 mg/kg, 120 h, dose level High, time 5 day

With `CC(C)(Oc1ccc(C2CCCc3ccccc32)cc1)C(=O)O` (centres undefined) [NAFENOPIN] the “ABSOLUTE BASOPHIL” value [1] was 0 CELLS/uL, the “ABSOLUTE EOSINOPHIL” value [1] was 0 CELLS/uL and the “ABSOLUTE LYMPHOCYTE” value [1] was 12561 CELLS/uL. For the same molecule, the “ABSOLUTE MONOCYTE” value [1] was 516.67 CELLS/uL, the “ABSOLUTE SEGMENTED NEUTROPHIL” value [1] was 1089 CELLS/uL and the BASOPHIL [1] was 0%. For the same molecule, the EOSINOPHIL [1] was 0%, the “ERYTHROCYTE COUNT” value [1] was 5.43 x10E6/uL and the HEMATOCRIT [1] was 32.67%. For the same molecule, the HEMOGLOBIN [1] was 12.23 G/DL, the “LEUKOCYTE COUNT” value [1] was 14.17 x10E3/uL and the LYMPHOCYTE [1] was 88.67%. For the same molecule, the “MEAN CORPUSCULAR HEMOGLOBIN” value [1] was 22.57 pg, the “MEAN CORPUSCULAR HEMOGLOBIN CONCENTRATION” value [1] was 37.5 G/DL and the “MEAN CORPUSCULAR VOLUME” value [1] was 60.17 fL. For the same molecule, the MONOCYTE [1] was 3.67%, the NEUTROPHIL [1] was 7.67% and the “NUCLEATED RED BLOOD CELLS” value [1] was 0 /100WBC. For the same molecule, the “PLATELET COUNT” value [1] was 828.67 x10E3/uL, the “ALANINE AMINOTRANSFERASE” value [1] was 61.67 u/L and the ALBUMIN [1] was 5.07 G/DL. For the same molecule, the “ALKALINE PHOSPHATASE” value [1] was 578 u/L, the “ASPARTATE AMINOTRANSFERASE” value [1] was 85.33 u/L and the “BLOOD UREA NITROGEN” value [1] was 14.33 mg/dL. The “CARBON DIOXIDE” value [1] was 32 mmol/L, the CHLORIDE [1] was 97 MEQ/L and the CHOLESTEROL [1] was 65.33 mg/dL. The “CREATINE PHOSPHOKINASE” value [1] was 403.67 u/L, the CREATININE [1] was 0.25 mg/dL and the GLUCOSE [1] was 148.67 mg/dL. The “LACTATE DEHYDROGENASE” value [1] was 257.33 u/L, the LIPASE [1] was 9.67 u/L and the PHOSPHORUS [1] was 13.43 mg/dL. For the same molecule, the POTASSIUM [1] was 6.96 MEQ/L, the SODIUM [1] was 142.07 MEQ/L and the “TOTAL BILIRUBIN” value [1] was 0.13 mg/dL. For the same molecule, the “TOTAL PROTEIN” value [1] was 6.07 G/DL, the “URIC ACID” value [1] was 1.23 mg/dL and the “ABSOLUTE BASOPHIL” value [2] was 0 CELLS/uL. For the same molecule, the “ABSOLUTE EOSINOPHIL” value [2] was 40.33 CELLS/uL, the “ABSOLUTE LYMPHOCYTE” value [2] was 10009.33 CELLS/uL and the “ABSOLUTE MONOCYTE” value [2] was 484 CELLS/uL. The “ABSOLUTE SEGMENTED NEUTROPHIL” value [2] was 1499.67 CELLS/uL, the BASOPHIL [2] was 0% and the EOSINOPHIL [2] was 0.33%. The “ERYTHROCYTE COUNT” value [2] was 5.41 x10E6/uL, the HEMATOCRIT [2] was 32.97% and the HEMOGLOBIN [2] was 12.87 G/DL. For the same molecule, the “LEUKOCYTE COUNT” value [2] was 12.03 x10E3/uL, the LYMPHOCYTE [2] was 83.33% and the “MEAN CORPUSCULAR HEMOGLOBIN” value [2] was 23.77 pg. For the same molecule, the “MEAN CORPUSCULAR HEMOGLOBIN CONCENTRATION” value [2] was 39.03 G/DL, the “MEAN CORPUSCULAR VOLUME” value [2] was 60.93 fL and the MONOCYTE [2] was 4%. For the same molecule, the NEUTROPHIL [2] was 12.33%, the “NUCLEATED RED BLOOD CELLS” value [2] was 0 /100WBC and the “PLATELET COUNT” value [2] was 1008 x10E3/uL. The “ALANINE AMINOTRANSFERASE” value [2] was 113 u/L, the ALBUMIN [2] was 4.73 G/DL and the “ALKALINE PHOSPHATASE” value [2] was 921 u/L. For the same molecule, the “ASPARTATE AMINOTRANSFERASE” value [2] was 143 u/L, the “BLOOD UREA NITROGEN” value [2] was 13.67 mg/dL and the “CARBON DIOXIDE” value [2] was 22 mmol/L. The CHLORIDE [2] was 104 MEQ/L, the CHOLESTEROL [2] was 59.67 mg/dL and the “CREATINE PHOSPHOKINASE” value [2] was 584.33 u/L. For the same molecule, the CREATININE [2] was 0.7 mg/dL, the GLUCOSE [2] was 143.67 mg/dL and the “LACTATE DEHYDROGENASE” value [2] was 415.33 u/L. It also gave an LIPASE [2] of 10 u/L, a PHOSPHORUS [2] of 12.27 mg/dL and a POTASSIUM [2] of 6.14 MEQ/L. For the same molecule, the SODIUM [2] was 143.63 MEQ/L, the “TOTAL BILIRUBIN” value [2] was 0.2 mg/dL and the “TOTAL PROTEIN” value [2] was 5.63 G/DL. For the same molecule, the “URIC ACID” value [2] was 1.23 mg/dL, the “ABSOLUTE BASOPHIL” value [3] was 0 CELLS/uL and the “ABSOLUTE EOSINOPHIL” value [3] was 38 CELLS/uL. For the same molecule, the “ABSOLUTE LYMPHOCYTE” value [3] was 11719.67 CELLS/uL, the “ABSOLUTE MONOCYTE” value [3] was 400 CELLS/uL and the “ABSOLUTE SEGMENTED NEUTROPHIL” value [3] was 1175.67 CELLS/uL. For the same molecule, the BASOPHIL [3] was 0%, the EOSINOPHIL [3] was 0.33% and the “ERYTHROCYTE COUNT” value [3] was 5.3 x10E6/uL. For the same molecule, the HEMATOCRIT [3] was 30.47%, the HEMOGLOBIN [3] was 11.43 G/DL and the “LEUKOCYTE COUNT” value [3] was 13.33 x10E3/uL. The LYMPHOCYTE [3] was 88%, the “MEAN CORPUSCULAR HEMOGLOBIN” value [3] was 21.6 pg and the “MEAN CORPUSCULAR HEMOGLOBIN CONCENTRATION” value [3] was 37.53 G/DL. The “MEAN CORPUSCULAR VOLUME” value [3] was 57.53 fL, the MONOCYTE [3] was 3% and the NEUTROPHIL [3] was 8.67%. For the same molecule, the “NUCLEATED RED BLOOD CELLS” value [3] was 0 /100WBC, the “PLATELET COUNT” value [3] was 850.67 x10E3/uL and the “ALANINE AMINOTRANSFERASE” value [3] was 87 u/L. The ALBUMIN [3] was 4.73 G/DL, the “ALKALINE PHOSPHATASE” value [3] was 891.33 u/L and the “ASPARTATE AMINOTRANSFERASE” value [3] was 88.67 u/L. For the same molecule, the “BLOOD UREA NITROGEN” value [3] was 12.67 mg/dL, the “CARBON DIOXIDE” value [3] was 29 mmol/L and the CHLORIDE [3] was 98 MEQ/L. For the same molecule, the CHOLESTEROL [3] was 96.67 mg/dL, the “CREATINE PHOSPHOKINASE” value [3] was 209.67 u/L and the CREATININE [3] was 0.65 mg/dL. The GLUCOSE [3] was 129.67 mg/dL, the “LACTATE DEHYDROGENASE” value [3] was 216.67 u/L and the LIPASE [3] was 10 u/L. It also gave a PHOSPHORUS [3] of 12.7 mg/dL, a POTASSIUM [3] of 6.55 MEQ/L and an SODIUM [3] of 143.43 MEQ/L. The “TOTAL BILIRUBIN” value [3] was 0.23 mg/dL, the “TOTAL PROTEIN” value [3] was 5.67 G/DL and the “URIC ACID” value [3] was 1.3 mg/dL.
